According to US20220160751A1, “METHODS OF TREATMENT OF DISEASES AND DISORDERS ASSOCIATED WITH INCREASED TET LEVEL, INCREASED H19 LEVEL, INCREASED LEVEL OF TGF SIGNALING, OR ANY COMBINATION THEREOF” (YALE UNIVERSITY, priority 2019, published 2022):
“Also recorded” adds a separate entry of the source.

Key:
primary human HSCs = test: qPCR of key pathway genes in primary human HSCs; assay type: cell-based; conditions: TGF-β1 2 ng/mL vs vehicle, 24 h
Experimental: (§1) Total RNA was extracted from cultured cells or liver tissue samples using PureLink RNA Mini Kit (Ambion, 12183018A). 0.8 μg of total RNA was reverse transcribed to cDNA in a reaction volume of 10 μl using PrimeScript RT Reagent Kit (TAKARA, RR037A). Quantitative real-time PCR reactions were carried out using iQSYBRGreen (Bio-Rad) in a Bio-Rad iCycler. Gene expression levels were normalized against housekeeping genes HPRT1 and RPLP0.

[1] = system: LX-2 human hepatic stellate cells; test: qPCR and immunoblotting of gene expression in LX-2 cells; assay type: cell-based; conditions: TGF-β1 5 ng/mL vs vehicle, 24 h
Experimental: LX-2 human hepatic stellate cells (Yale Liver Center) were maintained in DMEM (Gibco, 11965-092) supplemented with 10% heat-inactivated fetal bovine serum (Gibco, 26140-079) and 1% PS (penicillin and streptomycin) at 37° C. in 5% humidified CO2 tissue culture incubator. Generally, cells were plated and transfected in a 24-well plate scale. For transfection with siRNA, let-7, or iLet7, 10 pmol of siTET3 (or siCon), let-7 (or miCon), or iLet7 (iCon) were mixed with 25 μl of OPTI-MEM (Gibco, 31985-070) by gentle pipetting. In parallel, 1 μl of Lipofectamine 3000 (ThermoFisher Scientific, L3000015) was mixed with 25 μl of OPTI-MEM. Then, the contents from the two tubes were mixed by gentle pipetting. After incubation for 5 min at RT, the resulting 50 μl solution was used to resuspend cell pellet (5×10^4 cells). After incubation at RT for 10 min, 450 μl of growth medium was added and the cell suspension was transferred into one well of a 24-well plate. For transfection with TET3-expression plasmid pTET3 (pcDNA-Flag-Tet3, Addgene plasmid #60940, (30)) or control vector, 5×10^4 cells per well were seeded in a 24-well plate the night before transfection. The next day, 0.75 μg of pTET3 (or Vec) were mixed with 1 μl of P3000 in 25 μl of OPTI-MEM by gentle pipetting. In parallel, 0.5 μl of Lipofectamine 3000 were mixed with 25 μl of OPTI-MEM. The contents from the two tubes were combined by gentle pipetting and incubated for 5 min at RT. The resulting 50 μl of transfection solution was added to each well of cells seeded in a 24-well plate the night before and from which the growth medium had been removed. After 6 h of incubation in a tissue culture incubator, 500 μl of growth medium were added to each well of cells. For TGF-β1 (Sigma, USA) treatment experiments, transfected cells were incubated in 500 μl of serum-free DMEM containing 5 ng/mL TGF-β1 (diluted with HCl) or HCl (as control) for 24 h or 48 h as indicated.
as §1
For liver tissue samples, 5-10 mg of tissues were homogenized by sonication (Qsonica, Model Q125) in 150 μl of 2×SDS-sample buffer. Samples were immediately heated at 100° C. for 3 min with occasional vertexing. Then, 100 μl of 2×SDS-sample buffer was added to each sample and the 250 μl of tissue lysate were further homogenized by sonication and heated again at 100° C. for 3-5 min with vertexing once every 15 sec. Samples (further diluted at 1:1 with 2×SDS-sample buffer before loading) were loaded 5-10 μl per well onto a 4-15% gradient SDS gel, followed by Western blot analysis. Image J was used to quantify the protein bands.

TGF-β1: TGF-β1 (Sigma) used to stimulate LX-2 cells and primary human HSCs
expression of TET2 and TET1 (primary human HSCs): decreased expression of TET2 and TET1
expression of TET3, TGFB1, TSP1, TGFBR2, FN1, and COL1A1 (primary human HSCs): increased expression of TET3, TGFB1, TSP1, TGFBR2, FN1, and COL1A1
LIN28B expression [1]: stimulated expression of LIN28B
SMAD3 phosphorylation (with expression of α-SMA, COL1A1, FN1 and TIMP1) [1]: concomitant increase in SMAD3 phosphorylation; also recorded: increased Smad3 phosphorylation
TET3 expression (mRNA and protein) [1]: upregulated TET3; also recorded: increased expression of TET3
expression of TGF-β1, TSP1, and TGFBR2 [1]: also increased
let-7a and let-7b expression [1]: decreased expression of let-7a and let-7b
